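The compound was tested at five concentrations on cells cultured in 96-well plates, with a 48-hour exposure period. Here, GI50 denotes the concentration required for 50% inhibition of growth. TGI is the concentration that stops growth completely.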
Experiments:
Test in all cases: NCI tumour cell line growth inhibition, 48 h
OVCAR-8 ovarian = system: OVCAR-8 ovarian
SW-620 colon = system: SW-620 colon
SF-268 CNS = system: SF-268 CNS
COLO 205 colon = system: COLO 205 colon
PC-3 prostate = system: PC-3 prostate
UACC-257 melanoma = system: UACC-257 melanoma
DU-145 prostate = system: DU-145 prostate
IGROV1 ovarian = system: IGROV1 ovarian
786-0 renal = system: 786-0 renal
UACC-62 melanoma = system: UACC-62 melanoma

SMILES | GI50 (OVCAR-8 ovarian) [µM] | TGI (OVCAR-8 ovarian) [µM] | GI50 (SW-620 colon) [µM] | TGI (SW-620 colon) [µM] | GI50 (SF-268 CNS) [µM] | TGI (SF-268 CNS) [µM] | GI50 (COLO 205 colon) [µM] | TGI (COLO 205 colon) [µM] | GI50 (PC-3 prostate) [µM] | TGI (PC-3 prostate) [µM] | GI50 (UACC-257 melanoma) [µM] | TGI (UACC-257 melanoma) [µM] | GI50 (DU-145 prostate) [µM] | TGI (DU-145 prostate) [µM] | GI50 (IGROV1 ovarian) [µM] | TGI (IGROV1 ovarian) [µM] | GI50 (786-0 renal) [µM] | TGI (786-0 renal) [µM] | GI50 (UACC-62 melanoma) [µM] | TGI (UACC-62 melanoma) [µM]
COc1ccc(-c2nc3c(c(=O)n2C(C)=O)C(c2ccc(Cl)cc2)c2sc4c(Cl)cccc4c2O3)cc1 (stereo not drawn) | 0.5 | 2.37 | 0.376 | 1.75 | 0.68 | 3.82 | 0.355 | 1.32 | 0.337 | 2.39 | 0.776 | 3.29 | 0.394 | 1.96 | 0.512 | 3.12 | 0.43 | 1.63 | 0.298 | 1.7
Cc1cc(NC(=O)NC(=O)c2ccccc2N(C)C)ccc1Oc1ncc(Br)cn1 | 0.614 | > 68.1 |  | > 71.1 |  | > 68.1 | 0.266 |  |  | > 63.1 |  | > 100 |  | > 63.1 | 0.356 | > 63.1 | 0.322 | 44.6 |  | > 100
C/C(=N\n1c(N)c(C#N)c(-c2ccc(Cl)cc2)c(C#N)c1=O)c1ccncc1 | 2.95 | 12.4 | 31.5 | > 100 | 9.83 | 61.4 | > 100 | > 100 | 2.41 | 16.8 | 13.5 | 95.3 | 11.1 | 44.7 | 5.02 | > 100 | 6.95 | 34 | 36.4 | > 100
COc1ccc(C(=O)C[C@]2(O)C(=O)Nc3c(Cl)ccc(Cl)c32)cc1 | 0.92 | > 77.3 | 0.379 | > 100 | 1.33 | > 77.8 | 0.488 | 9.78 | 1.16 | > 100 | 50.3 | > 100 | 1.87 | > 55.7 | 0.531 | > 100 | 2.61 | > 100 | 0.486 | > 100
Cc1ccc(-n2c3c(c4c(CN5CCOCC5)c(O)ccc42)CCc2ccccc2C3=O)cc1 | 90.7 | > 100 | > 100 | > 100 | 73.7 | > 100 | > 100 | > 100 | 42.4 | > 100 | > 100 | > 100 | > 100 | > 100 | 23.3 | > 100 | 91.5 | > 100 | > 100 | > 100
O=C(Cc1ccc(/C=C/C(=O)c2ncc[nH]2)cc1)Nc1ccc(C(F)(F)F)cc1 | 7.99 | > 33.3 | 1.35 | 5.17 | 3.05 | 9.53 | 5.38 | 11.8 | 2.81 | 12.4 | 7.2 | 16.1 | 2.13 | 6.3 | 3.84 | 15.9 | 1.4 | 6.07 | 4.47 | 9.44
COC(=O)[C@H](Cc1ccccc1)NC(=O)c1csc([C@@H](C[C@H](C(C)C)N(C)C(=O)[C@@H](NC(=O)[C@H]2CCCN2C)C2CC2)OC(C)=O)n1 | 0.602 | > 33.3 | 0.235 | > 33.3 | 1.05 | > 33.3 | 0.456 | 4.29 | 0.572 | > 33.3 | 16.9 | > 33.3 | 0.346 | > 33.3 | 0.327 | > 33.3 | 0.746 | > 33.3 | 1.38 | > 33.3
COc1ccc(/C=C(/C(=O)n2cnnn2)c2cc(OC)c(OC)c(OC)c2)cc1 | 3.66 | > 100 | 3.78 | > 100 | 4.04 | > 100 | 2.92 | 7.21 | 4.03 | > 100 | > 100 | > 100 | 3.5 | > 100 | 4.69 | > 100 | 4.76 | > 100 | 3.1 | > 100
CC(C)(CO)N=Cc1ccccc1[O-].CC(C)(CO)N=Cc1ccccc1[O-].[Co+2] | > 100 | > 100 | 72.4 | > 100 | 46.3 | > 100 | 55.9 | > 100 | 49.3 | > 100 | 30.1 | > 100 | 42.1 | > 100 | 84.3 | > 100 | 42.1 | > 100 | 24.9 | > 85.3
Nc1ncnc2c1c(-c1ccc(Oc3ccccc3)cc1)nn2C[C@@H]1SSC[C@@H]1O | 0.36 | 12.2 | 0.432 | > 84 | 0.0375 | 0.53 | 1.58 | 4.7 | 1.72 | 10.1 | 0.374 | 11.9 | 1.36 | 4.02 | 0.839 | 3.26 | 2.75 | 11.1 | 0.193 | 0.411

From PubChem BioAssay (NCI)
